Some results are limits rather than exact numbers.

The target in the assay is LSD-1 enzyme (Homo sapiens (Human), UniProt O60341).
Procedure: LSD1 Histone Demethylase Biochemical Assay
LANCE LSD1/KDM1A demethylase assay-10 μL of 1 nM LSD-1 enzyme (ENZO BML-SE544-0050) in the assay buffer (50 mM Tris, pH 7.5, 0.01% Tween-20, 25 mM NaCl, 5 mM DTT) were preincubated for 1 hour at 25° C. with 0.8 μL compound/DMSO dotted in black 384 well polystyrene plates. […] After stopping the reactions plates were incubated for 30 minutes and read on a PHERAstar FS plate reader (BMG Labtech).
The compound `CC1(CN[C@@H]2C[C@H]2c2ccccc2)CCN(C(=O)C2(N)CCCC2)CC1` [Example 51, 1-{[4-methyl-4-({[(1R,2S)-2-phenylcyclopropyl]amino}methyl)piperidin-1-yl]carbonyl}cyclopentanamine] registered a concentration for half-maximal inhibition (IC50) below 0.1 µM. In the case of `CC1(CN[C@@H]2C[C@H]2c2ccccc2)CCN(Cc2cnc(N)nc2)CC1` [Example 52, 5-{[4-methyl-4-({[(1R,2S)-2-phenylcyclopropyl]amino}methyl)piperidin-1-yl]methyl}pyrimidin-2-amine], the half-maximal inhibitory concentration (IC50) was below 0.1 µM.

For the compound `N#CCc1ccc(CC2(CN[C@@H]3C[C@H]3c3ccccc3)CCN(CC3(C(=O)O)CC3)CC2)cc1` [Example 53, 1-{[4-[4-(cyanomethyl)benzyl]-4-({[(1R,2S)-2-phenylcyclopropyl]amino}methyl)piperidin-1-yl]methyl}cyclopropanecarboxylic acid], the IC50 was below 0.1 µM.

With `N#CCc1ccc(CC2(CN[C@@H]3C[C@H]3c3ccccc3)CCN(CC3(C(=O)O)CCC3)CC2)cc1` [Example 54, 1-{[4-[4-(cyanomethyl)benzyl]-4-({[(1R,2S)-2-phenylcyclopropyl]amino}methyl)piperidin-1-yl]methyl}cyclobutanecarboxylic acid], the IC50 was below 0.1 µM.

The compound `N#Cc1ccc(CC2(CN[C@@H]3C[C@H]3c3ccccc3)CCN(CC3(C(=O)O)CC3)CC2)cc1` [Example 55, 1-{[4-(4-cyanobenzyl)-4-({[(1R,2S)-2-phenylcyclopropyl]amino}methyl)piperidin-1-yl]methyl}cyclopropanecarboxylic acid] had a concentration for half-maximal inhibition (IC50) below 0.1 µM. Consider `N#Cc1cccc(CC2(CN[C@@H]3C[C@H]3c3ccccc3)CCN(CC3(C(=O)O)CC3)CC2)c1` [Example 56, 1-{[4-(3-cyanobenzyl)-4-({[(1R,2S)-2-phenylcyclopropyl]amino}methyl)piperidin-1-yl]methyl}cyclopropanecarboxylic acid], for which the IC50 is below 0.1 µM. With `N#Cc1cccc(CC2(CN[C@@H]3C[C@H]3c3ccccc3)CCN(CC3(C(=O)O)CCC3)CC2)c1` [Example 57, 1-{[4-(3-cyanobenzyl)-4-({[(1R,2S)-2-phenylcyclopropyl]amino}methyl)piperidin-1-yl]methyl}cyclobutanecarboxylic acid] the figure was below 0.1 µM. Next, `N#Cc1cccc(CC2(CN[C@@H]3C[C@H]3c3ccccc3)CCN(C[C@H]3CC[C@H](C(=O)O)CC3)CC2)c1` [Example 58, trans-4-{[4-(3-cyanobenzyl)-4-({[(1R,2S)-2-phenylcyclopropyl]amino}methyl)piperidin-1-yl]methyl}cyclohexanecarboxylic acid]: below 0.1 µM; `COc1cccc(CN2CCC(CN[C@@H]3C[C@H]3c3ccccc3)(Cc3cccc(C(=O)O)c3)CC2)c1` [Example 59, 3-{[1-(3-methoxybenzyl)-4-({[(1R,2S)-2-phenylcyclopropyl]amino}methyl)piperidin-4-yl]methyl}benzoic acid]: below 0.1 µM; `COCC1(CN[C@@H]2C[C@H]2c2ccccc2)CCN(C(=O)N2CC[C@@H](O)C2)CC1` [Example 60, (3R)-1-{[4-(methoxymethyl)-4-({[(1R,2S)-2-phenylcyclopropyl]amino}methyl)piperidin-1-yl]carbonyl}pyrrolidin-3-ol]: below 0.1 µM. Next, `COCC1(CN[C@@H]2C[C@H]2c2ccccc2)CCN(C(=O)N2CC[C@H](O)C2)CC1` [Example 61, (3S)-1-{[4-(methoxymethyl)-4-({[(1R,2S)-2-phenylcyclopropyl]amino}methyl)piperidin-1-yl]carbonyl}pyrrolidin-3-ol]: below 0.1 µM; `COCC1(CN[C@@H]2C[C@H]2c2ccccc2)CCN(Cc2ccc(C(=O)O)cc2)CC1` [Example 62, 4-{[4-(methoxymethyl)-4-({[(1R,2S)-2-phenylcyclopropyl]amino}methyl)piperidin-1-yl]methyl}benzoic acid]: below 0.1 µM.

Source of the values: patent US9670210B2, “Cyclopropylamines as LSD1 inhibitors” (Incyte Corporation, priority 2014, dated 2017).
